# PubChem BioAssay AID1918944 (Molecular Pharmacology Branch, DTP, NCI, 2023)
# Values joined by “and” are separate entries in the source; they are usually repeats but may differ in a detail not shown here. Equal entries are not always repeated.
# System: 786-0 complex spheroid viability
# Experiment: Anticancer human tumor 786-0 cell line growth inhibition;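 further: spheroids exposed to agents for seven days before readout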
# Settings: for viability, T/C: stronger effect = lower value
# Procedure, shortened: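 Drug combinations with the LSD1 inhibitor iadademstat tested on tumor cells co-cultured as spheroids with endothelial cells and mesenchymal stem cells. Concentrations descended in half-log increments from clinical Cmax or 10 microM.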
# [1] = curve of first compound, second compound 0.1 µM
# [2] = curve of first compound, second compound 0.316 µM
# [3] = curve of first compound, second compound 1 µM
# [4] = curve of first compound, second compound 3.16 µM
# [5] = curve of first compound, second compound 10 µM
# [6] = second compound 0.1 µM, first compound 0.00316 µM
# [7] = second compound 0.1 µM, first compound 0.01 µM
# [8] = second compound 0.1 µM, first compound 0.0316 µM
# [9] = second compound 0.1 µM, first compound 0.1 µM
# [10] = second compound 0.1 µM, first compound 0.316 µM
# [11] = second compound 0.1 µM, first compound 1 µM
# [12] = second compound 0.316 µM, first compound 0.00316 µM
# [13] = second compound 0.316 µM, first compound 0.01 µM
# [14] = second compound 0.316 µM, first compound 0.0316 µM
# [15] = second compound 0.316 µM, first compound 0.1 µM
# [16] = second compound 0.316 µM, first compound 0.316 µM
# [17] = second compound 0.316 µM, first compound 1 µM
# [18] = second compound 1 µM, first compound 0.00316 µM
# [19] = second compound 1 µM, first compound 0.01 µM
# [20] = second compound 1 µM, first compound 0.0316 µM
# [21] = second compound 1 µM, first compound 0.1 µM
# [22] = second compound 1 µM, first compound 0.316 µM
# [23] = second compound 1 µM, first compound 1 µM
# [24] = second compound 3.16 µM, first compound 0.00316 µM
# [25] = second compound 3.16 µM, first compound 0.01 µM
# [26] = second compound 3.16 µM, first compound 0.0316 µM
# [27] = second compound 3.16 µM, first compound 0.1 µM
# [28] = second compound 3.16 µM, first compound 0.316 µM
# [29] = second compound 3.16 µM, first compound 1 µM
# [30] = second compound 10 µM, first compound 0.00316 µM
# [31] = second compound 10 µM, first compound 0.01 µM
# [32] = second compound 10 µM, first compound 0.0316 µM
# [33] = second compound 10 µM, first compound 0.1 µM
# [34] = second compound 10 µM, first compound 0.316 µM
# [35] = second compound 10 µM, first compound 1 µM
# [36] = second compound 0.1 µM, first compound 0.00949 µM
# [37] = second compound 0.1 µM, first compound 0.03 µM
# [38] = second compound 0.1 µM, first compound 0.0949 µM
# [39] = second compound 0.1 µM, first compound 0.3 µM
# [40] = second compound 0.316 µM, first compound 0.00949 µM
# [41] = second compound 0.316 µM, first compound 0.03 µM
# [42] = second compound 0.316 µM, first compound 0.0949 µM
# [43] = second compound 0.316 µM, first compound 0.3 µM
# [44] = second compound 1 µM, first compound 0.00949 µM
# [45] = second compound 1 µM, first compound 0.03 µM
# [46] = second compound 1 µM, first compound 0.0949 µM
# [47] = second compound 1 µM, first compound 0.3 µM
# [48] = second compound 3.16 µM, first compound 0.00949 µM
# [49] = second compound 3.16 µM, first compound 0.03 µM
# [50] = second compound 3.16 µM, first compound 0.0949 µM
# [51] = second compound 3.16 µM, first compound 0.3 µM
# [52] = second compound 10 µM, first compound 0.00949 µM
# [53] = second compound 10 µM, first compound 0.03 µM
# [54] = second compound 10 µM, first compound 0.0949 µM
# [55] = second compound 10 µM, first compound 0.3 µM
structure (smiles),measurement,setting,value
COc1cc(Nc2ncc3c(n2)-c2ccc(Cl)cc2C(c2c(F)cccc2OC)=NC3)ccc1C(=O)O + NC1CCC(NC2CC2c2ccccc2)CC1,IC50,[1],609 nM
same,IC50,[2],480 nM
same,IC50,[3],451 nM
same,IC50,[4],233 nM
same,IC50,[5],117 nM
same,"viability, T/C",[6],114%
same,"viability, T/C",[7],97.2%
same,"viability, T/C",[8],80.7%
same,"viability, T/C",[9],68.8%
same,"viability, T/C",[10],57.1%
same,"viability, T/C",[11],44.5%
same,"viability, T/C",[12],116%
same,"viability, T/C",[13],93.2%
same,"viability, T/C",[14],73.2%
same,"viability, T/C",[15],65.9%
same,"viability, T/C",[16],54.1%
same,"viability, T/C",[17],43.7%
same,"viability, T/C",[18],108%
same,"viability, T/C",[19],91%
same,"viability, T/C",[20],71.8%
same,"viability, T/C",[21],66.9%
same,"viability, T/C",[22],53.9%
same,"viability, T/C",[23],42.5%
same,"viability, T/C",[24],102%
same,"viability, T/C",[25],82%
same,"viability, T/C",[26],60.3%
same,"viability, T/C",[27],59.1%
same,"viability, T/C",[28],51%
same,"viability, T/C",[29],40.6%
same,"viability, T/C",[30],80.2%
same,"viability, T/C",[31],64.9%
same,"viability, T/C",[32],53.2%
same,"viability, T/C",[33],56.4%
same,"viability, T/C",[34],46.4%
same,"viability, T/C",[35],39.7%
Nc1ccccc1NC(=O)c1ccc(CNC(=O)OCc2cccnc2)cc1 + NC1CCC(NC2CC2c2ccccc2)CC1,IC50,[1],1670 nM
same,IC50,[2],1550 nM
same,IC50,[3],1540 nM
same,IC50,[4],1280 nM
same,IC50,[5],756 nM
same,"viability, T/C",[36],115%
same,"viability, T/C",[37],121%
same,"viability, T/C",[38],113%
same,"viability, T/C",[39],110%
same,"viability, T/C","second compound 0.1 µM, first compound 0.949 µM",80.9%
same,"viability, T/C","second compound 0.1 µM, first compound 3 µM",17.7%
same,"viability, T/C",[40],123%
same,"viability, T/C",[41],121%
same,"viability, T/C",[42],119%
same,"viability, T/C",[43],109%
same,"viability, T/C","second compound 0.316 µM, first compound 0.949 µM",74.2%
same,"viability, T/C","second compound 0.316 µM, first compound 3 µM",17.2%
same,"viability, T/C",[44],116%
same,"viability, T/C",[45],116%
same,"viability, T/C",[46],112%
same,"viability, T/C",[47],103%
same,"viability, T/C","second compound 1 µM, first compound 0.949 µM",74%
same,"viability, T/C","second compound 1 µM, first compound 3 µM",16.7%
same,"viability, T/C",[48],107%
same,"viability, T/C",[49],105%
same,"viability, T/C",[50],103%
same,"viability, T/C",[51],93.6%
same,"viability, T/C","second compound 3.16 µM, first compound 0.949 µM",62%
same,"viability, T/C","second compound 3.16 µM, first compound 3 µM",15.1%
same,"viability, T/C",[52],85.5%
same,"viability, T/C",[53],82.7%
same,"viability, T/C",[54],86.1%
same,"viability, T/C",[55],78.1%
same,"viability, T/C","second compound 10 µM, first compound 0.949 µM",43%
same,"viability, T/C","second compound 10 µM, first compound 3 µM",9.91%
COc1ccc([C@@H](O)c2cc(-c3ncnc4cc(N5CCOCC5)ccc34)c(F)cc2Cl)nn1 + NC1CCC(NC2CC2c2ccccc2)CC1,IC50,[1],8630 nM
same,IC50,[2],8980 nM
same,IC50,[3],7650 nM
same,IC50,[4],7270 nM
same,IC50,[5],4560 nM
same,"viability, T/C",[8],115%
same,"viability, T/C",[9],118%
same,"viability, T/C",[10],119%
same,"viability, T/C",[11],108%
same,"viability, T/C","second compound 0.1 µM, first compound 3.16 µM",72.6%
same,"viability, T/C","second compound 0.1 µM, first compound 10 µM",46.7%
same,"viability, T/C",[14],127%
same,"viability, T/C",[15],123%
same,"viability, T/C",[16],119%
same,"viability, T/C",[17],110%
same,"viability, T/C","second compound 0.316 µM, first compound 3.16 µM",72.7%
same,"viability, T/C","second compound 0.316 µM, first compound 10 µM",47.8%
same,"viability, T/C",[20],115%
same,"viability, T/C",[21],116%
same,"viability, T/C",[22],110%
same,"viability, T/C",[23],104%
same,"viability, T/C","second compound 1 µM, first compound 3.16 µM",69.9%
same,"viability, T/C","second compound 1 µM, first compound 10 µM",44%
same,"viability, T/C",[26],104%
same,"viability, T/C",[27],116%
same,"viability, T/C",[28],104%
same,"viability, T/C",[29],95.8%
same,"viability, T/C","second compound 3.16 µM, first compound 3.16 µM",67.4%
same,"viability, T/C","second compound 3.16 µM, first compound 10 µM",43.4%
same,"viability, T/C",[32],89.8%
same,"viability, T/C",[33],81%
same,"viability, T/C",[34],84.7%
same,"viability, T/C",[35],81.6%
same,"viability, T/C","second compound 10 µM, first compound 3.16 µM",56.6%
same,"viability, T/C","second compound 10 µM, first compound 10 µM",35.8%
NC1CCC(NC2CC2c2ccccc2)CC1 (stereo unspecified),"viability, T/C",compound 0.1 µM,114% [middle of 25 runs]
same,"viability, T/C",compound 0.316 µM,113% and 132%
same,"viability, T/C",compound 1 µM,112% [middle of 25 runs]
same,"viability, T/C",compound 3.16 µM,106% [middle of 25 runs]
same,"viability, T/C",compound 10 µM,85.4% [middle of 23 runs]
same,IC50,"compound alone, run of 11/29/2021",> 10000 nM
Nc1ncn(C2CC(O)C(CO)S2)c(=O)n1 (stereo unspecified) + NC1CC1c1ccc(-c2cccc(O)c2)cc1,IC50,[1],216 nM
same,IC50,[2],> 300 nM
same,IC50,[3],255 nM
same,IC50,[4],251 nM
same,IC50,[5],> 300 nM
same,"viability, T/C","second compound 0.1 µM, first compound 0.000949 µM",117%
same,"viability, T/C","second compound 0.1 µM, first compound 0.003 µM",114%
same,"viability, T/C",[36],113%
same,"viability, T/C",[37],99%
same,"viability, T/C",[38],81.5%
same,"viability, T/C",[39],37.6%
same,"viability, T/C","second compound 0.316 µM, first compound 0.000949 µM",116%
same,"viability, T/C","second compound 0.316 µM, first compound 0.003 µM",121%
same,"viability, T/C",[40],112%
same,"viability, T/C",[41],106%
same,"viability, T/C",[42],86.8%
same,"viability, T/C",[43],51%
same,"viability, T/C","second compound 1 µM, first compound 0.000949 µM",121%
same,"viability, T/C","second compound 1 µM, first compound 0.003 µM",110%
same,"viability, T/C",[44],110%
same,"viability, T/C",[45],100%
same,"viability, T/C",[46],83.2%
same,"viability, T/C",[47],44%
same,"viability, T/C","second compound 3.16 µM, first compound 0.000949 µM",111%
same,"viability, T/C","second compound 3.16 µM, first compound 0.003 µM",109%
same,"viability, T/C",[48],102%
same,"viability, T/C",[49],102%
same,"viability, T/C",[50],79.3%
same,"viability, T/C",[51],44.2%
same,"viability, T/C","second compound 10 µM, first compound 0.000949 µM",93.3%
same,"viability, T/C","second compound 10 µM, first compound 0.003 µM",100%
same,"viability, T/C",[52],95.1%
same,"viability, T/C",[53],95.2%
same,"viability, T/C",[54],81.3%
same,"viability, T/C",[55],53.9%
COc1cc(Nc2ncc3c(n2)-c2ccc(Cl)cc2C(c2c(F)cccc2OC)=NC3)ccc1C(=O)O + NC1CC1c1ccc(-c2cccc(O)c2)cc1,IC50,[1],584 nM
same,IC50,[2],638 nM
same,IC50,[3],431 nM
same,IC50,[4],588 nM
same,IC50,[5],955 nM
same,"viability, T/C",[6],96.3%
same,"viability, T/C",[7],86.8%
same,"viability, T/C",[8],69%
same,"viability, T/C",[9],65%
same,"viability, T/C",[10],55.5%
same,"viability, T/C",[11],45.4%
same,"viability, T/C",[12],105%
same,"viability, T/C",[13],94.5%
same,"viability, T/C",[14],77%
same,"viability, T/C",[15],67.1%
same,"viability, T/C",[16],55.4%
same,"viability, T/C",[17],46.4%
same,"viability, T/C",[18],93.3%
same,"viability, T/C",[19],83.6%
same,"viability, T/C",[20],70.3%
same,"viability, T/C",[21],66.9%
same,"viability, T/C",[22],52%
same,"viability, T/C",[23],42.2%
same,"viability, T/C",[24],89.7%
same,"viability, T/C",[25],86.1%
same,"viability, T/C",[26],68.5%
same,"viability, T/C",[27],66.1%
same,"viability, T/C",[28],56.9%
same,"viability, T/C",[29],44.7%
same,"viability, T/C",[30],84.6%
same,"viability, T/C",[31],77.7%
same,"viability, T/C",[32],67.9%
same,"viability, T/C",[33],72.2%
same,"viability, T/C",[34],56.7%
same,"viability, T/C",[35],49.4%
